What all share (format): functional
Experiment [1] deals with Tetranychus urticae. Kind of experiment: Acaricidal activity against Tetranychus urticae (two-spotted spider mite) assessed as mite mortality at 500 ppm relative to untreated control.
Experiment [2] has as its system Tetranychus urticae. Kind of experiment: Acaricidal activity against Tetranychus urticae (two-spotted spider mite) assessed as mite mortality at 12.5 ppm relative to untreated control.
In experiment [3] the test system is Tetranychus urticae. Kind of experiment: Acaricidal activity against Tetranychus urticae (two-spotted spider mite) assessed as mite mortality at 200 ppm relative to untreated control.
For experiment [4], the system named is Tetranychus urticae. Kind of experiment: Acaricidal activity against Tetranychus urticae (two-spotted spider mite) assessed as mite mortality at 50 ppm relative to untreated control.

The term mortality denotes the share of the test organisms that died. Take `CCc1nnc(NC(=O)C2(C)CC2(Cl)Cl)s1` (stereo unspecified): in experiment [1], the mortality at 500 ppm came to 0%.
`CC1(C(=O)Nc2nnc(C(F)(F)C(F)(F)C(F)(F)C(F)(F)F)s2)CC1(Cl)Cl` (stereo unspecified): the mortality at 500 ppm in experiment [1] came out at 0%.
Same read-out and setting: the value for `O=C(Nc1nnc(C(F)(F)F)s1)C1CC1(Cl)Cl` (stereo unspecified) was 0%.
On to `CCC1(C(=O)Nc2nnc(C(F)(F)F)s2)CC1(Cl)Cl` (stereo unspecified), for which the mortality at 12.5 ppm in experiment [2] was 0%. For the same molecule, the mortality at 500 ppm in experiment [1] came out at 100%. For the same molecule, the mortality at 200 ppm in experiment [3] amounted to 100%. Besides, the mortality at 50 ppm in experiment [4] was determined as 100%.
With `CC(C)C1(C(=O)Nc2nnc(C(F)(F)F)s2)CC1(Cl)Cl` (stereo unspecified), in experiment [2], the mortality at 12.5 ppm was 30%. For the same molecule, in experiment [1], the mortality at 500 ppm came to 80%. Moreover, the mortality at 200 ppm in experiment [3] stood at 80%. Further, in experiment [4], the mortality at 50 ppm was found to be 30%.
`CC1(C(=O)Nc2nnc(C(F)(F)F)s2)CC1`: the mortality at 500 ppm in experiment [1] came out at 0%.
Turning to `CC1(C(=O)Nc2nnc(C(F)(F)C(F)(F)F)s2)CC1(Cl)Cl` (stereo unspecified), in experiment [2], the mortality at 12.5 ppm worked out at 30%. Besides, the mortality at 500 ppm in experiment [1] was determined as 100%. For the same molecule, the mortality at 200 ppm in experiment [3] came to 100%. In experiment [4], the mortality at 50 ppm was found to be 100%.
In the case of `CCCCC1(C(=O)Nc2nnc(C(F)(F)F)s2)CC1(Cl)Cl` (stereo unspecified), the mortality at 500 ppm in experiment [1] was determined as 80%. Also, in experiment [3], the mortality at 200 ppm stood at 30%.
For `CC1(C(=O)Nc2nnc(C(F)(F)F)s2)CC1(Cl)Cl` (stereo unspecified), in experiment [2], the mortality at 12.5 ppm was 30%. Besides, in experiment [1], the mortality at 500 ppm was found to be 100%. The mortality at 200 ppm in experiment [3] came to 100%. For the same molecule, the mortality at 50 ppm in experiment [4] was determined as 100%.
For `Cc1nnc(NC(=O)C2(C)CC2(Cl)Cl)s1` (stereo unspecified), in experiment [1], the mortality at 500 ppm came out at 0%.
As for `CCCC1(C(=O)Nc2nnc(C(F)(F)F)s2)CC1(Cl)Cl` (stereo unspecified), the mortality at 12.5 ppm in experiment [2] turned out to be 0%. For the same molecule, the mortality at 500 ppm in experiment [1] stood at 100%. The mortality at 200 ppm in experiment [3] stood at 100%. The mortality at 50 ppm in experiment [4] was determined as 80%.
Take `CC1(C(=O)Nc2nnc(C(F)(F)F)s2)CC1(Br)Br` (stereo unspecified): the mortality at 12.5 ppm in experiment [2] amounted to 0%. For the same molecule, in experiment [1], the mortality at 500 ppm turned out to be 100%. The mortality at 200 ppm in experiment [3] came to 100%. Besides, the mortality at 50 ppm in experiment [4] stood at 30%.
With `CC1(C(=O)Nc2nncs2)CC1(Cl)Cl` (stereo unspecified), the mortality at 500 ppm in experiment [1] was 0%.
For `CC1(C(=O)Nc2nnc(C(F)(F)C(F)(F)C(F)(F)F)s2)CC1(Cl)Cl` (stereo unspecified), the mortality at 12.5 ppm in experiment [2] was 80%. In addition, in experiment [1], the mortality at 500 ppm amounted to 100%. Moreover, the mortality at 200 ppm in experiment [3] is 100%. Also, the mortality at 50 ppm in experiment [4] was determined as 100%.

These data come from ChEMBL document CHEMBL3045551, “Synthesis and Acaricidal Activity of N-(1,3,4-Thiadiazol-2-yl)cyclopropanecarboxamides” (2003).
